Source: the NIST ThermoML archive (doi:10.1021/je900113f)

Settings: 101.33 kPa, Liquid, Vibrating wire viscometry

CC(C)CCCCCCCOC(=O)c1ccccc1C(=O)OCCCCCCCC(C)C
Settings	viscosity [mPa·s]
283.03 K	264.88
288.23 K	176.35
288.36 K	173.92
293.23 K	122.34
293.93 K	116.51
298.13 K	87.76
298.58 K	85.3
303.18 K	64.51
303.5 K	63.25
